PubChem BioAssay (NCI)
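Results reflect a 48-hour exposure of cells in 96-well plates to compound at five concentrations. The concentration for 50% growth inhibition is given as GI50. Definition used: TGI = concentration required for complete inhibition of growth.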

Legend:
Test in all cases: NCI-60 cell line screen, 48 h
CCRF-CEM leukemia = tested on: CCRF-CEM leukemia
OVCAR-4 ovarian = tested on: OVCAR-4 ovarian
A549 NSCLC = tested on: A549 NSCLC
RPMI-8226 leukemia = tested on: RPMI-8226 leukemia
DU-145 prostate = tested on: DU-145 prostate
NCI-H522 lung = tested on: NCI-H522 lung
HOP-92 NSCLC = tested on: HOP-92 NSCLC
COLO 205 colon = tested on: COLO 205 colon
OVCAR-8 ovarian = tested on: OVCAR-8 ovarian
UO-31 renal = tested on: UO-31 renal

Structure (SMILES)	GI50 (CCRF-CEM leukemia)	TGI (CCRF-CEM leukemia)	GI50 (OVCAR-4 ovarian)	TGI (OVCAR-4 ovarian)	GI50 (A549 NSCLC)	TGI (A549 NSCLC)	GI50 (RPMI-8226 leukemia)	TGI (RPMI-8226 leukemia)	GI50 (DU-145 prostate)	TGI (DU-145 prostate)	GI50 (NCI-H522 lung)	TGI (NCI-H522 lung)	GI50 (HOP-92 NSCLC)	TGI (HOP-92 NSCLC)	GI50 (COLO 205 colon)	TGI (COLO 205 colon)	GI50 (OVCAR-8 ovarian)	TGI (OVCAR-8 ovarian)	GI50 (UO-31 renal)	TGI (UO-31 renal)
COc1ccc(-c2csc(NC(=O)c3cc(O)c(O)c(O)c3)n2)cc1	1.55 µM	17.6 µM	7.27 µM	> 33.3 µM	10.3 µM	> 33.3 µM	5.59 µM	> 33.3 µM	9.59 µM	> 33.3 µM	1.32 µM	6.89 µM	5.24 µM	26.2 µM	10.8 µM	> 33.3 µM	7.52 µM	> 33.3 µM	1.65 µM	> 33.3 µM
CN(C)CCCn1c2nc(=O)[nH]c(=O)c-2nc2cc(Cl)c(Cl)cc21	3.81 µM	18.7 µM	6.3 µM	18.8 µM	4.02 µM	16.3 µM	3.25 µM	12.9 µM	16.4 µM	30 µM	2.1 µM	4.23 µM	12.2 µM	25.8 µM	1.35 µM	2.83 µM	3.16 µM	10.6 µM	2.73 µM	10.9 µM
COC1=C(Br)C(=O)C2=C(C1=O)C1C3=C(C(=O)C=CC3=O)C2c2ccccc21 (stereo not given)	3.16 µM	> 100 µM	13.7 µM	63.7 µM	42.1 µM	> 100 µM	4.04 µM	> 100 µM	21.4 µM	53.8 µM	3.26 µM	14.4 µM	2.51 µM	11.6 µM	12.3 µM	44.9 µM	24.3 µM	> 100 µM	12.2 µM	41.2 µM
Cn1c(=O)c(Oc2ccccc2)cc2cnc(NC3CCOCC3)nc21	> 25 µM	> 25 µM	> 25 µM	> 25 µM	> 25 µM	> 25 µM	> 25 µM	> 25 µM	> 25 µM	> 25 µM	> 25 µM	> 25 µM	> 25 µM	> 25 µM	> 25 µM	> 25 µM	> 25 µM	> 25 µM	> 25 µM	> 25 µM
NC1=Nc2cc(OCCCN3Cc4ccccc4C3)c(OCC3CC3)cc2C12CCCC2	2.45 µM	9.26 µM	3.55 µM	16.6 µM	3.99 µM	13.5 µM	1.75 µM	4.51 µM	4.44 µM	16.2 µM	2.25 µM	4.87 µM	0.718 µM	3.14 µM	1.59 µM	3.29 µM	3.71 µM	13.9 µM	1.49 µM	3.14 µM
N#Cc1c(N)nc(N2CCOCC2)c(C#N)c1-c1ccccc1Cl	45 µM	> 100 µM	14.5 µM	85.3 µM	66.5 µM	> 100 µM	21.5 µM	> 100 µM	93.4 µM	> 100 µM	0.0236 µM	2.81 µM	16.9 µM	72.4 µM	38.1 µM	> 100 µM	42 µM	> 100 µM	14.5 µM	43.4 µM
N#C/C(=C\c1ccc(Br)cc1)n1nnc2ccccc21	0.357 µM	16.6 µM	1.5 µM	5.25 µM	0.808 µM	15 µM	0.475 µM	3.31 µM	1.23 µM	3.31 µM	0.191 µM	1.25 µM	0.23 µM	1.58 µM	0.591 µM	3.22 µM	0.788 µM	13.6 µM	0.449 µM	1.63 µM
COc1cc(OC)c(C(=O)/C=C/c2cccc(OC(C)=O)c2)cc1CC=C(C)C	7 µM	31 µM	5.73 µM	> 50 µM	15.2 µM	> 50 µM	8.94 µM	33.7 µM	6.18 µM	14.6 µM	8.76 µM	22.2 µM	8.52 µM	39.8 µM	6.96 µM	14.2 µM	8.38 µM	> 50 µM	15.9 µM	> 50 µM
NC1CCC(N[C@@H]2C[C@H]2c2ccccc2)CC1 (stereo not given in full)	82.8 µM	> 100 µM	> 100 µM	> 100 µM	> 100 µM	> 100 µM	41.8 µM	> 100 µM	> 100 µM	> 100 µM	> 100 µM	> 100 µM	5.47 µM	> 100 µM	73.4 µM	> 100 µM	> 100 µM	> 100 µM	67.4 µM	> 100 µM
Fc1ccc2[nH]cc(SSc3c[nH]c4ccc(F)cc34)c2c1	2.54 µM	8.56 µM	3.87 µM	18.2 µM	4.98 µM	87.7 µM	1.5 µM	6.46 µM	11.6 µM	31.1 µM	2.48 µM	7.67 µM	1.95 µM	7.92 µM	3.83 µM	17.4 µM	5.73 µM	42.8 µM	4.83 µM	52.3 µM
